Reference: patent US20020016346A1, “Method for enhancing outflow of aqueous humor in treatment of glaucoma” (The Regents University of California, a California …, priority 1994, published 2002)
Read-outs that look alike come from different tables or passages of the source.

Tests used:
Na—K—Cl cotransport = target: T1, Na—K—Cl cotransport (Bos taurus, UniProt F1MS08); assay: K influx (86Rb) in bovine TM cell monolayers; type: cell-based; details: bovine TM cells; VP 100 nM, NE 10 μM, Ach 1 μM, cAMP 50 μM, cGMP 50 μM, A23187 1 μM, PMA 10 nM, Ca-free medium plus 5 μM BAPTA-AM; control 25.6 ± 0.71
T1 sequence (F1MS08 1-1204): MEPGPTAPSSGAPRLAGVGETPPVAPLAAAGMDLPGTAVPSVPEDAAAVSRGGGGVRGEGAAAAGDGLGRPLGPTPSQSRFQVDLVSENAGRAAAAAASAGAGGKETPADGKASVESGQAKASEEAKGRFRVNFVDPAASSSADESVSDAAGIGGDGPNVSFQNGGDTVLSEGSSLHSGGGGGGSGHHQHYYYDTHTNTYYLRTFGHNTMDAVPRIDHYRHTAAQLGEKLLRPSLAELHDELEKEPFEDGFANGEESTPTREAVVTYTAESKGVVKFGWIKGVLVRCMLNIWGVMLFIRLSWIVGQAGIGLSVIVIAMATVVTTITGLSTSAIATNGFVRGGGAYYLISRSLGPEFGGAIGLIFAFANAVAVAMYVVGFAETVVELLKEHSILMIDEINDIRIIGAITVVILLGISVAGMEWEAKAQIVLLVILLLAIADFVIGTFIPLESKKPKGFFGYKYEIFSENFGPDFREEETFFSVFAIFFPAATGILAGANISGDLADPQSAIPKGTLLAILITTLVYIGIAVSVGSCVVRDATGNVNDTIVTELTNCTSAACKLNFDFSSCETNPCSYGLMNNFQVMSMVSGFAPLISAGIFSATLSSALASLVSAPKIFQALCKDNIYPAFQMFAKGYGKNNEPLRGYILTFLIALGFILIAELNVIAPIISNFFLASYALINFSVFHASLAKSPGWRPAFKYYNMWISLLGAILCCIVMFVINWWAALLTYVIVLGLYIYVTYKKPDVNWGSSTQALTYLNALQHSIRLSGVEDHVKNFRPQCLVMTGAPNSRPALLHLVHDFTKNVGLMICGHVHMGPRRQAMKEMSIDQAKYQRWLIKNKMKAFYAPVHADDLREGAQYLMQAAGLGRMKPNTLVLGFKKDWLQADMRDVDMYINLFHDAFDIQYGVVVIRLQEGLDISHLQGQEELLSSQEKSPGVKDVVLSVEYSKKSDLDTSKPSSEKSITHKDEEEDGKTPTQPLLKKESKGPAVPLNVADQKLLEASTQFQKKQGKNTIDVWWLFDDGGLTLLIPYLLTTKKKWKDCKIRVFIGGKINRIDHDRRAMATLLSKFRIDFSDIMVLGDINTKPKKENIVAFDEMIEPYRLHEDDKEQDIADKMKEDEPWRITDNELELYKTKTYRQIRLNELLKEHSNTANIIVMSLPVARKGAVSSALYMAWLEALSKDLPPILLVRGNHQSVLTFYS
Procedure: Details of this method have been published previously (O'Donnell, M. E., supra, 1989). Briefly, bovine or human TM cell monolayers on 24 well plates were equilibrated for 10 minutes at 37° C. in a Hepes-buffered minimal essential medium (MEM) containing (in mM): 144 Na, 147 Cl, 5.8 K, 1.2 Ca, 4.2 HCO3, 0.4 H2PO4, […], 0.4 SO4, 5.6 glucose and 20 Hepes. […] The assay medium also contained ^86Rb (1 μCi/ml) (Dupont New England Nuclear, Boston, Mass.). The assay was terminated by rinsing the wells with ice-cold isotonic MgCl2, then extracting the contents with 0.2% sodium dodecyl sulfate (SDS), and determining the amount of radioactive contents by liquid scintillation. Osmolarities of all preincubation and assay media were verified by osmometry (Model 3W2, Advanced Instruments, Norwood, Mass.).
The effects of hormones, neurotransmitters and second messengers on Bumetanide-sensitive K influx of bovine trabecular meshwork cells were assessed using the procedures of Example 1. […] The control is the Hepes-buffered medium containing Na, K, Cl, CA and other ions as described in Example 1B. […] The data represent the mean values±SEM of quadruplicate determinations from two experiments.

[1] = Lipophilicity (log P′), n-octanol/phosphate buffer pH 7.4 shake-flask or RP-HPLC; type: physicochemical
Procedure: The lipophilicity of a compound is expressed in terms of an octanol:water coefficient determined by the standard technique of radiolabelling the compound and introducing a small amount into equal volumes of octanol and tris buffer (50 mM, pH 7.4). Generally the lipophilicity (log P′) is expressed as the logarithm of the partition coefficient in n-octanol/phosphate buffer, pH 7.4 using the well known shake-flask method as described by Cloux, et al., J. Pharm. Belg., 43:141-151, 1973, which is incorporated herein by reference in its entirety. The coefficient of lipophilicity (log P′) of the compounds useful for topical application to decrease intra-ocular pressure is preferably at least 0.005, and more preferably at least 0.01.
The lipophilicity of the aqueous humor outflow-increasing compounds of this invention can also be determined using a reversed phase, high performance liquid chromatograph (RP-HPLC) system for determination of the log P′ of the drug as described in B. Masereel, et al. (J. Pharm. Pharmacol. 44:589-593, 1992), which is incorporated herein by reference in its entirety. Briefly, a reversed phase column (RP-18) is equilibrated with n-propanol/phosphate buffer, pH 7.4 at a ratio of 30:70). Compounds to be tested are dissolved and eluted with the same solution. A series of standards with a wide range of lipophilicity, as determined by the shake-flask method, is run and a calibration curve is established for each session. KNO3 is injected to determine the void volume and […] is determined, wherein tr is the drug retention time andot is the retention time of NO3-. Calibration curves are calculated using log P′ and log k′ values. Log P′ values of other compounds are obtained by interpolation of the standard curves.

Na+2Cl−K+ co-transporter = target: T2, Na+2Cl−K+ co-transporter (Oryctolagus cuniculus, UniProt P55015); assay: Inhibition of short circuit current in perfused cortical thick ascending limb of the loop of Henle; type: cell-based, rabbit; details: concentration blocking 50% of short circuit current
T2 construct: cotransporter system found in the cortical thick ascending limbs of the loop of Henle of mammals; from tissue; host or cells: dissected, perfused cortical thick ascending limb tubules of rabbit kidney
T2 sequence (P55015 1-1099): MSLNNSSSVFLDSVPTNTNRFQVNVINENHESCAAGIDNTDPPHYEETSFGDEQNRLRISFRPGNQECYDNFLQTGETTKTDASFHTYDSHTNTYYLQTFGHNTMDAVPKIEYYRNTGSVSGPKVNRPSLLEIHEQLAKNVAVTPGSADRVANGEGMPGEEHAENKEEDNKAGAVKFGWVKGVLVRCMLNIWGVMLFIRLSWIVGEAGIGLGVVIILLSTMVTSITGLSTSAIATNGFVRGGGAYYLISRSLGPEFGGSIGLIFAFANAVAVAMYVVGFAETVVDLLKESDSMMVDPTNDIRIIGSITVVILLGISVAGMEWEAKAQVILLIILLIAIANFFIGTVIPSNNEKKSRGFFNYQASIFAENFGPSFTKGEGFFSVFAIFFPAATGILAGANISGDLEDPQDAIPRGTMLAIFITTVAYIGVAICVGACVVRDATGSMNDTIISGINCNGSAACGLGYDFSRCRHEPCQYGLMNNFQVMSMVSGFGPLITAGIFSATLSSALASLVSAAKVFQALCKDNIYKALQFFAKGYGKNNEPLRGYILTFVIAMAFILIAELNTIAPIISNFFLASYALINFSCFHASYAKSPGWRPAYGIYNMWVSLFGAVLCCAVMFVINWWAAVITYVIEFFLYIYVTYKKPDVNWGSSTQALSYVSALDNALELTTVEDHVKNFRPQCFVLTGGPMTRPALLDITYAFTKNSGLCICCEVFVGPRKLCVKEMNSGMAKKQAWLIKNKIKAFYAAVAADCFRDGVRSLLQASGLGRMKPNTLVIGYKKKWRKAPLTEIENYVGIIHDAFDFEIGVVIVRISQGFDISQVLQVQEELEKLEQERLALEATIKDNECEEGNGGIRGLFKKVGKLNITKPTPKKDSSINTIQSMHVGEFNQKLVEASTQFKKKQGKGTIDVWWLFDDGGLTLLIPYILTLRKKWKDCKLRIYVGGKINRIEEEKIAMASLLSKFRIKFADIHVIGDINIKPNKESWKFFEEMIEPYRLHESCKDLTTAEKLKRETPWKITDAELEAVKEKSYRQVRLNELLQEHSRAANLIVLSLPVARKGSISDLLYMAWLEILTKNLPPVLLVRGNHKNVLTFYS
Source text: B. Burg et al. (Am J. Physiol. 210:1293-1298, 1966) as modified by […] Arch. 390:30-37, 1981) and […] et al. (Pflüger's Arch. 389:175-176, 1981), both of which are incorporated herein by reference in their entireties. In brief, this in vitro test uses the Na-2Cl^- K^+ cotransporter system found in the cortical thick ascending limbs of the loop of Henle of mammals, particularly rabbits, for example, female white New Zealand rabbits. The tubules are dissected and perfused according to the known techniques, but with the rate of perfusion through the lumen kept high (10-20 nl/min) to prevent changes in the ionic composition of the perfusate along the perfused tubule. As control perfusate, a solution containing (mM): NaCl 145; […] KH2PO4 0.4; MgCl2 1; Ca gluconate 1.3; and glucose 5 is used on both sides of the epithelium with pH adjusted to 7.4 The transepithelial potential (Vtc) is recorded continuously on both ends of the tubule. […] The ratio of both values ([…] the equivalent short circuit current Itc. There is a direct relationship between the decrease of Itc and the inhibition of the Na^+2Cl^-K^+ co-transporter by contact with the test compound ([…] et al., Klin. Wochenschr. 61:1019-1027, 1983). For each drug under study, dose-response curves are established by adding compounds at various concentrations to the luminal perfusate with at least three determinations for each concentration. […] Details of this method have been published previously in M. E. O'Donnell, J. Biol. Chem. 264:11559-11566, 1991, which is incorporated herein by reference in its entirety. An illustration of the use of this method is found in Example 1B of this application.

SMILES | BUMETANIDE-SENSITIVE K INFLUX (Na—K—Cl cotransport) | logP [1] | IC50 (Na+2Cl−K+ co-transporter; read-out: IC50) | IC50 (Na+2Cl−K+ co-transporter)
CC(=O)OCOC(=O)CN(CC(=O)OCOC(C)=O)c1ccccc1OCCOc1ccccc1N(CC(=O)OCOC(C)=O)CC(=O)OCOC(C)=O [Ca-free, 1,2-bis (o-aminophenoxy)ethane-N,N,N′,N-tetraacetic acid acetoxymethyl ester] | 4.9 ± 1.06 μmol/g protein/min |  |  | 
Cc1cccc(Nc2ccncc2S(=O)(=O)NC(=O)NC(C)C)c1 [Compound 7] |  | 0.45 | 200 nM | 
CC(C)NC(=O)NS(=O)(=O)c1cnccc1NC1CCCCC1 [Compound 8] |  | 0.58 | 700 nM | 
O=C(NC1CCCCC1)NS(=O)(=O)c1cnccc1NC1CCCCC1 [Compound 9] |  | 1.33 | 19000 nM | 
O=C(NC1CCCCC1)NS(=O)(=O)c1cnccc1NC1CCCCCC1 [Compound 10] |  | 1.67 | 3500 nM | 
O=C(NC1CCCCC1)NS(=O)(=O)c1cnccc1NC1CCCCCCC1 [Compound 11] |  | 2.05 | 470 nM | 
O=C(NC1CCCCCC1)NS(=O)(=O)c1cnccc1NC1CCCCC1 [Compound 12] |  | 1.72 | 9500 nM | 
O=C(NC1CCCCCC1)NS(=O)(=O)c1cnccc1NC1CCCCCC1 [Compound 13] |  | 2.06 | 2800 nM | 
O=C(NC1CCCCCC1)NS(=O)(=O)c1cnccc1NC1CCCCCCC1 [Compound 14] |  | 2.45 | 2000 nM | 
O=C(NC1CCCCCCC1)NS(=O)(=O)c1cnccc1NC1CCCCC1 [Compound 15] |  | 2.07 | 1400 nM | 
O=C(NC1CCCCCCC1)NS(=O)(=O)c1cnccc1NC1CCCCCC1 [Compound 16] |  | 2.44 | 1700 nM | 
O=C(NC1CCCCCCC1)NS(=O)(=O)c1cnccc1NC1CCCCCCC1 [Compound 17] |  | 2.7 | 560 nM | 
O=C(NC1CCCCC1)NS(=O)(=O)c1cnccc1NC1CCCCCCCCCCC1 [Compound 18] |  | 3.45 | > 100000 nM | inactive
CC(C)NC(=S)NS(=O)(=O)c1cnccc1NC1CCCCCC1 [Compound 19] |  | 0.96 | 1300 nM | 
O=S(=O)(NC(=S)NC1CCCCC1)c1cnccc1NC1CCCCCC1 [Compound 20] |  | 1.79 | 790 nM | 
O=C(NS(=O)(=O)c1cnccc1NC1CCCCC1)N1CCCCC1 [Compound 21] |  | 0.62 | 320 nM | 
O=C(NS(=O)(=O)c1cnccc1NC1CCCCCC1)N1CCCCC1 [Compound 22] |  | 1.24 | 250 nM | 
O=C(NS(=O)(=O)c1cnccc1NC1CCCCCCC1)N1CCCCC1 [Compound 23] |  | 1.65 | 150 nM | 
CNc1ccc2oc(C[C@H]3O[C@@]4(CC[C@H]3C)O[C@H]([C@H](C)C(=O)c3ccc[nH]3)[C@H](C)C[C@H]4C)nc2c1C(=O)O [Compound A23187, A23187] | 33.4 ± 5.33 μmol/g protein/min |  |  | 
NC[C@H](O)c1ccc(O)c(O)c1 [NE, norepinephrine] | 18.6 ± 1.79 μmol/g protein/min |  |  | 
